Experimental data taken from publication PMC8228597, “Asperflaloids A and B from Aspergillus flavipes DZ-3, an Endophytic Fungus of Eucommia ulmoides Oliver” (Molecules, 2021).
pIC50: −log10 of the molar value.

How the values were obtained:
[1] = DPPH radical scavenging test (antioxidant activity); settings: for pIC50: − means no activity
Experimental: The DPPH scavenging was assayed according to the reported method. The DPPH radical scavenging test was performed in 96-well microplates. Samples (compounds 1–12) were added to 180 μL (150 μmol/L) DPPH solution in EtOH at 20 μL solutions of different concentrations between 10 and 500 μM. After 30 min of light avoidance, absorbance at 517 nm using a microplate reader (Tecan Trading AG, Männedorf, Switzerland) was measured and the percentage of activity was calculated. All assays were performed in three replicates, and vitamin C was used as a positive control.

[2] = target: α-glucosidase (Saccharomyces cerevisiae, UniProt P53341); test: α-glucosidase inhibitory assay; format: biochemical; settings: − means no activity
Chain of α-glucosidase (P53341 whole entry): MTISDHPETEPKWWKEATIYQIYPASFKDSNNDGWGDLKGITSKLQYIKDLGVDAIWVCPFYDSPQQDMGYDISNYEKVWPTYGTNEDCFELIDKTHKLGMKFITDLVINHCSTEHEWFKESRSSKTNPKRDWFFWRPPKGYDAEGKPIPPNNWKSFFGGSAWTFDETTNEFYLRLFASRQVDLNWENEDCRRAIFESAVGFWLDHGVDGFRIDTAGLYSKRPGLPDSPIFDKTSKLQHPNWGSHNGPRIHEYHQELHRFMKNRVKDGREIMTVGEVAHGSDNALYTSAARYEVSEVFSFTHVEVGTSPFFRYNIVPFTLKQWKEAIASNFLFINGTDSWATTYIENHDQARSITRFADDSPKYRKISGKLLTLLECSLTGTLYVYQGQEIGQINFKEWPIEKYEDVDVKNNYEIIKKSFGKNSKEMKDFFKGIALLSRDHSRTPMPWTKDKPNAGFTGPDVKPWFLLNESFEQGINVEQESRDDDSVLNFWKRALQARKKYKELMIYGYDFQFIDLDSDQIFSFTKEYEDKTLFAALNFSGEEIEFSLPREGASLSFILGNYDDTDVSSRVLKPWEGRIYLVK
Experimental: The α-glucosidase inhibitory effect was assessed as described in our recently published paper.

Row | Compound | Antioxidant % Inhibition (500 μM) [1] [%] | pIC50 [1] | pIC50 [2]
1 | O=C(O)[C@H](Cc1ccc(O)cc1)n1cnc2ccccc2c1=O [Compound 1, Asperflaloid A] | <50 | < 3.30 | –
2 | CC(=O)Nc1ccccc1C(=O)OC[C@@H](O)CO [Compound 2, Asperflaloid B] | <50 | < 3.30 | –
3 | O=c1[nH]c(Cc2ccc(O)cc2)nc2ccccc12 [Compound 3, 2-(4-hydroxybenzyl)quinazolin-4(3H)-one] | <50 | < 3.30 | –
4 | O=C(O)c1ccccc1-n1ncnc1Cc1ccc(O)cc1 [Compound 4, penipanoid A] | <50 | < 3.30 | –
5 | C=CC(C)(C)[C@]12C=C(OC)C(=O)N3/C(=C/c4c[nH]cn4)C(=O)N[C@@]31N(OC)c1ccccc12 [Compound 5, oxaline] | <50 | < 3.30 | –
6 | C/C(=C/C(=O)NCCCC(=O)O)CCO [Compound 6, fuscoatramide] | <50 | < 3.30 | –
7 | O=C(O)Cc1ccc(O)c(O)c1 [Compound 7, 3,4-dihydroxybenzeneacetic acid] | 96.6 | 4.84 | –
8 | COC(=O)Cc1ccc(O)c(O)c1 [Compound 8, 3,4-dihydroxyphenylacetic acid methyl ester] | 92 | 4.57 | –
9 | NC(=O)Cc1ccc(O)cc1 [Compound 10, 4-hydroxybenzeneacetamide] | 64.9 | 3.47 | –
10 | COC(=O)Cc1ccc(O)cc1 [Compound 11, 4-hydroxy phenylacetic acid methyl ester] | <50 | < 3.30 | –
11 | N#CCc1ccc(O)cc1 [Compound 12, 4-hydroxyphenylacetonitrile] | <50 | < 3.30 | –
12 | O=C1O[C@H]([C@@H](O)CO)C(O)=C1O [Vitamin C, vitamin C, reference compound] | 96.4 | 4.57 | –
13 | phenylacetic acid [Compound 9] | <50 | < 3.30 | < 3.00
